Laboratory results taken from patent US6777412B2 (priority 1990, dated 2004).

Key:
Puccinia recondita = test: Foliar fungal disease test on plants: Puccinia recondita (Pr); format: in vivo; conditions: 100 ppm active ingredient foliar spray plus root drench (approx. 40 ppm a.i. in dry soil), one or two days before inoculation
How it was run: (§1)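 Potted plants treated by foliar spray to maximum retention (100 ppm a.i. unless stated) plus root drench (~40 ppm a.i. in dry soil), with 0.05% Tween 20 on cereals, one or two days before spore-suspension inoculation.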

Erysiphe graminis hordei = test: Foliar fungal disease test on plants: Erysiphe graminis hordei (Egh); format: in vivo; conditions: 100 ppm active ingredient foliar spray plus root drench (approx. 40 ppm a.i. in dry soil); plants inoculated 24 hours before treatment
Pyricularia oryzae = format: in vivo; conditions: 100 ppm active ingredient foliar spray plus root drench (approx. 40 ppm a.i. in dry soil), one or two days before inoculation
Venturia inaequalis = test: Foliar fungal disease test on plants: Venturia inaequalis (Vi); format: in vivo; conditions: 100 ppm active ingredient foliar spray plus root drench (approx. 40 ppm a.i. in dry soil), one or two days before inoculation
How it was run: as §1

Cercospora arachidicola = test: Foliar fungal disease test on plants: Cercospora arachidicola (Ca); format: in vivo; conditions: 100 ppm active ingredient foliar spray plus root drench (approx. 40 ppm a.i. in dry soil), one or two days before inoculation
Method: The compounds were tested against a variety of foliar fungal diseases of plants. The technique employed was as follows.
The plants were grown in John Innes Potting Compost (No.1 or 2) in 4 cm diameter minipots. The test compounds were formulated either by bead milling with aqueous Dispersol T or as a solution in acetone or acetone/ethanol which was diluted to the required concentration immediately before use. For the foliage diseases, the formulations (100 ppm active ingredient except where otherwise indicated) were sprayed onto the foliage and applied to the roots of the plants in the soil. The sprays were applied to maximum retention and the root drenches to a final concentration equivalent to approximately 40 ppm a.i. in dry soil. Tween 20, to give a final concentration of 0.05%, was added when the sprays were applied to cereals.
For most of the tests the compound was applied to the soil (roots) and to the foliage (by spraying) one or two days before the plant was inoculated with the disease. An exception was the test on Erysiphe graminis in which the plants were inoculated 24 hours before treatment. Foliar pathogens were applied by spray as spore suspensions onto the leaves of test plants. After inoculation, the plants were put into an appropriate environment to allow infection to proceed and then incubated until the disease was ready for assessment. The period between inoculation and assessment varied from four to fourteen days according to the disease and environment.
The disease control vas recorded by the following grading:
3=trace-5% of disease on untreated plants
2=6-25% of disease on untreated plants
1=26-59% of disease on untreated plants
0=60-100% of disease on untreated plants
Ca Cercospora arachidicola

Plasmopara viticola = test: Foliar fungal disease test on plants: Plasmopara viticola (Pv); format: in vivo; conditions: 100 ppm active ingredient foliar spray plus root drench (approx. 40 ppm a.i. in dry soil), one or two days before inoculation
How it was run: as §1

[1] = system: Phytophthora infestans lycopersici; format: in vivo; conditions: 100 ppm active ingredient foliar spray plus root drench (approx. 40 ppm a.i. in dry soil), one or two days before inoculation

Structure (SMILES) | melting point [°C] | disease control grading, Pr (Puccinia recondita) (Puccinia recondita) | disease control grading, Egh (Erysiphe graminis hordei) (Erysiphe graminis hordei) | disease control grading, Po (Pyricularia oryzae) (Pyricularia oryzae) | disease control grading, Vi (Venturia inaegualis) (Venturia inaequalis) | disease control grading, Ca (Cercospora arachidicola) (Cercospora arachidicola) | disease control grading, Pv (Plasmopara viticola) (Plasmopara viticola) | disease control grading, Pil (Phytophthora infestans lycopersici) [1]
CO/C=C(/C(=O)OC)c1ccccc1Oc1cc(OCc2ccc([N+](=O)[O-])cc2)ncn1 | 96 to 98 | – | – | – | – | – | – | –
CO/C=C(/C(=O)OC)c1ccccc1Oc1cc(N(C(=O)c2ccccc2)C(=O)c2ccccc2)ncn1 [398 of Table I] | – | 4 (4=no disease) | 4 (4=no disease) | 3 (3=trace-5% of disease on untreated plants) | 4 (4=no disease) | 4 (4=no disease) | 4 (4=no disease) | 4 (4=no disease)
